Data as given in patent US20260207559A1, “(S)-(3-(1-(1H-IMIDAZOL-4-YL)ETHYL)-2-METHYLPHENYL)METHANOL FOR TREATMENT OF AGITATION” (Alceptor Therapeutics, Inc., priority 2022, published 2026).
Like-named read-outs stand apart in the source and are kept apart here.

Experiments:
[1] = Pharmacokinetics after IV or oral dosing in mice
Procedure: (§1) Groups of rodents were dosed either intravenously or orally in order to determine certain pharmacokinetic properties, including oral bioavailability and half-life. Bioavailability was determined by comparing plasma exposure following IV dosing in a [19% hydroxypropyl beta-cyclodextrin/5% DMSO in saline] formulation with plasma exposure following dosing by oral gavage in a 0.5% methyl cellulose formulation.

in vivo = assay: in vivo
Procedure: as §1

[2] = Pharmacokinetics in rodents, plasma and brain (species not specified)
Procedure: as §1

laboratory rodents = test system: laboratory rodents
Excerpt: The resident-intruder model is an established preclinical model of aggression and agitation, and allows spontaneous and natural expression of both offensive aggression/agitation and defensive behavior in laboratory rodents in a semi natural laboratory setting. […] The latency to attack and the number of attacks are measures of agitation.

Mice = conditions: for Inhibition of distance travelled: 30-minute session
Procedure: Sedation is assessed in the Locomotor Activity (LMA) model. Mice are placed in a novel chamber and their exploratory activity during a 30-minute session is measured as distance traveled.

[3] = test system: 7 different human CYP enzymes; assay: Metabolism by panel of human recombinant CYP enzymes, % compound remaining; conditions: all incubations (7 CYPs); 2 µM; up to 60 min; NADPH
CYP2B6 = CYP2B6 (Homo sapiens, UniProt P20813); conditions: recombinant enzyme, 1 h, 2 µM
Chain of CYP2B6 (P20813 whole entry): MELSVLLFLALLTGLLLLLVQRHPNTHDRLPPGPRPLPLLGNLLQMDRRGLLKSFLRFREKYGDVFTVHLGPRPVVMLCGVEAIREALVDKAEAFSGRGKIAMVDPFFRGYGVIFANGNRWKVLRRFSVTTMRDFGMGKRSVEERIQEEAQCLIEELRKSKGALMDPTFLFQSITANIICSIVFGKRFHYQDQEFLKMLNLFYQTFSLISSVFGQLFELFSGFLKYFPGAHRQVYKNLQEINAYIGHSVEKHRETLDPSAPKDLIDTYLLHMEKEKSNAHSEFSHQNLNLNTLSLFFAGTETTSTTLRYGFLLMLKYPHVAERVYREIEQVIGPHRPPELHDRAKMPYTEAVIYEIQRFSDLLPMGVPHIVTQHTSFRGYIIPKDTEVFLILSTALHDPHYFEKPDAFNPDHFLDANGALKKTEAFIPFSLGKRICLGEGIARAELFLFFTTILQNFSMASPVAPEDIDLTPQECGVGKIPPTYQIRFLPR

CYP2C8 = CYP2C8 (Homo sapiens, UniProt P10632); conditions: recombinant enzyme, 1 h, 2 µM
Chain of CYP2C8 (P10632 whole entry): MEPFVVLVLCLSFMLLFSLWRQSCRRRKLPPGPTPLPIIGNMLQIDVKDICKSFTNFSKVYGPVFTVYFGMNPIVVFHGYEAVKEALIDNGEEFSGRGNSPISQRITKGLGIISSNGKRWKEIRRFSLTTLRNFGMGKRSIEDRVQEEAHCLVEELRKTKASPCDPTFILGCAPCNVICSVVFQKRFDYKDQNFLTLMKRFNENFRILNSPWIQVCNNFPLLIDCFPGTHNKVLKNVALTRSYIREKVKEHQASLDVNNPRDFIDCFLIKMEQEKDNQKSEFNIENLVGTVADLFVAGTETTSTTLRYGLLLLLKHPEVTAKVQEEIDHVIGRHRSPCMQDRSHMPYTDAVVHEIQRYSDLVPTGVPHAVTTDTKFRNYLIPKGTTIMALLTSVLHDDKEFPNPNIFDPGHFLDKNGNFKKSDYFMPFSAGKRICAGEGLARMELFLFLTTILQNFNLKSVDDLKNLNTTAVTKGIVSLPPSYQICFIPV

CYP2C19 = CYP2C19 (Homo sapiens, UniProt P33261); conditions: recombinant enzyme, 1 h, 2 µM
Chain of CYP2C19 (P33261 whole entry): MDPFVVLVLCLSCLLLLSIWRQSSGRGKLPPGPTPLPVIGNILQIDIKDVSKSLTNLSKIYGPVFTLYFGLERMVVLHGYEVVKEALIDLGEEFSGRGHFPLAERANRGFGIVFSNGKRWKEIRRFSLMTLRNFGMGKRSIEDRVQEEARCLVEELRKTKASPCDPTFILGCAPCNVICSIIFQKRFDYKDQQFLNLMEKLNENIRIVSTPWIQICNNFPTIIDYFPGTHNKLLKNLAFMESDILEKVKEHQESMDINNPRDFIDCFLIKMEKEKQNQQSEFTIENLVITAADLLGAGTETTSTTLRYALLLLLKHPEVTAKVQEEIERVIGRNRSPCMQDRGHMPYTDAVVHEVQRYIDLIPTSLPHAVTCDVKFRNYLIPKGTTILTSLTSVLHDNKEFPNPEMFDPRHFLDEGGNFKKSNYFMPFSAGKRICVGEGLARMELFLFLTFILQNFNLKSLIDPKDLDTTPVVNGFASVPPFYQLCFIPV

CYP2D6 = CYP2D6 (Homo sapiens, UniProt P10635); conditions: recombinant enzyme, 1 h, 2 µM
Chain of CYP2D6 (P10635 whole entry): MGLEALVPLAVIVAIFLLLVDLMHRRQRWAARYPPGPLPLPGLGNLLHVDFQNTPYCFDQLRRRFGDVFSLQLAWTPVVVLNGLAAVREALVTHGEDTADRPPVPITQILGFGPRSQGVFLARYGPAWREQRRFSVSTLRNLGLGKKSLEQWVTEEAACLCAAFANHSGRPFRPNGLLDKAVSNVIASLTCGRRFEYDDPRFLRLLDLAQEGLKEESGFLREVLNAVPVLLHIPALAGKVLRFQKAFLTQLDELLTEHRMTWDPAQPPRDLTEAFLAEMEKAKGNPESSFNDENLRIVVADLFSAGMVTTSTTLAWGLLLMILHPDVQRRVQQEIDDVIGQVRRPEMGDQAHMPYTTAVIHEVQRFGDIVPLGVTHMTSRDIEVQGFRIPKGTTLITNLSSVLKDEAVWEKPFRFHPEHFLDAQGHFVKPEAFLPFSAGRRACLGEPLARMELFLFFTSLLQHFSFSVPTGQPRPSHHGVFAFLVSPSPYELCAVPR

CYP3A4 = CYP3A4 (Homo sapiens, UniProt P08684); conditions: recombinant enzyme, 1 h, 2 µM
Chain of CYP3A4 (P08684 whole entry): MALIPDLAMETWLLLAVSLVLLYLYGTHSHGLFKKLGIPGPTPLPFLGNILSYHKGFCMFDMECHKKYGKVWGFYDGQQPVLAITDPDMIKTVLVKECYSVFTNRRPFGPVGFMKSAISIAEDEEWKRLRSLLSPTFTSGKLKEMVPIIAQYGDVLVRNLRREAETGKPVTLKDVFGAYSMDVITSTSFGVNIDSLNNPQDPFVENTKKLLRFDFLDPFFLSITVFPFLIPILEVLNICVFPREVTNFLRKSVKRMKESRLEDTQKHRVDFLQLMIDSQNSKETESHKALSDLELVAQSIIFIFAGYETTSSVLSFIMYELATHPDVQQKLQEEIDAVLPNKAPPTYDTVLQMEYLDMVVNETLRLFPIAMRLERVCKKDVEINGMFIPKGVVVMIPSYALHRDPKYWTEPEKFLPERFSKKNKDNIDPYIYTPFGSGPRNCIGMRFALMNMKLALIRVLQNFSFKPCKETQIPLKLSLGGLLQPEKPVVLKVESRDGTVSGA

Question: For `Cc1c(CO)cccc1[C@H](C)c1c[nH]cn1`, which “Time to maximum plasma concentration” value ([1]; mice) is on record?
Answer: Its value is no more than 10 min.

Question: And the bioavailability ([1]; mouse, plasma, oral)?
Answer: Its bioavailability is no more than 51%.

Question: What about the bioavailability (in vivo; rat, in vivo) of the same compound?
Answer: Its bioavailability is no more than 34%.

Question: And the “Time to maximum plasma concentration” value (in vivo; rats)?
Answer: The value was no more than 17 min.

Question: And the “Mean decrease of levels in plasma and brain” value ([2]; between 2 and 8 hrs)?
Answer: Its value is less than 2 fold.

Question: And the “Time to achieve pharmacological concentrations in the brain” value ([2]; brain)?
Answer: The value was no more than 30 minutes.

Question: And the half-life ([2]; plasma, po)?
Answer: The half-life was 4.2 to 7 h.

Question: And the “Half-life relative to dexmedetomidine (longer)” value ([2]; rodents (mice and rats), plasma, oral)?
Answer: Its value is 2- to 4 fold.

Question: And the “Activity in resident-intruder model” value (laboratory rodents; 1 mg/kg)?
Answer: Its value is “minimal activity”.

Question: And the “Sedation in LMA model” value (Mice; 1 mg/kg)?
Answer: Its value is “minimally sedating”.

Question: And the “Inhibition of distance travelled” value (Mice; 2 mg/kg)?
Answer: The value was “about 25%”.

Question: And the “Inhibition of distance travelled” value (Mice; 3 mg/kg)?
Answer: Its value is less than 50%.

Question: What about the “Maximum achievable level of activity in the LMA model” value (Mice; compared with dexmedetomidine) of the same compound?
Answer: The value was “less than the maximum achievable level of activity with dexmedetomidine”.

Question: And the “Concentration as % of the starting concentration” value [3]?
Answer: The value was greater than 90%.

Question: With `Cc1c(CO)cccc1[C@@H](C)c1c[nH]cn1` [(R)-(3-(1-(1H-imidazol-4-yl)ethyl)-2-methylphenyl)methanol] as the compound, how does the bioavailability (in vivo; rat, in vivo, po) read?
Answer: The bioavailability was 7%.

Question: What does the source list for `Cc1cccc([C@H](C)c2cnc[nH]2)c1C` [dexmedetomidine]?
Answer: bioavailability (in vivo; rat, in vivo, po): 8.6%; half-life (in vivo; rat, in vivo, po): 2 h; Inhibition of attacks (laboratory rodents; 0.2 mg/kg): 20%; % of compound remaining (CYP2B6): 28%; % of compound remaining (CYP2C8): 84%; % of compound remaining (CYP2C19): 74%; % of compound remaining (CYP2D6): 7%; % of compound remaining (CYP3A4): 89%
